Measured values published in US20230398101A1, “Co-agents as Therapy Against Anaerobic Pathogens” (priority 2022, published 2023).
Read-outs that look alike come from different tables or passages of the source.

What was measured:
Type in all cases: cell-based
Clostridium septicum = assay: Anaerobic agar-dilution AST (MIC, checkerboard FIC); conditions: for MIC vs clinical breakpoint (susceptibility): anaerobic (Table 17); for MIC: Clostridium septicum
[1] = test system: Peptostreptococcus anaerobius; assay: as above; conditions: Peptostreptococcus anaerobious 807256
Bacteroides ovatus = assay: as above
[2] = test system: Bacteroides thetaiotaomicron; assay: microbe, parasite or virus in culture; conditions: for MIC: anaerobic
Prevotella intermedia = assay: Anaerobic agar-dilution AST (MIC, checkerboard FIC)
[3] = test system: Aggretibacter actinomycetemcomitans; assay: as above; conditions: strain D751, anaerobic
Staphylococcus aureus = assay: Aerobic agar-dilution AST of facultative anaerobes (MIC, checkerboard FIC); conditions: Staphylococcus aureus, read-out: MIC
Escherichia coli = assay: as above
[4] = test system: Lactobacillus delbrueckii; assay: AST (MIC) of beneficial or mutualistic facultative anaerobic bacteria
Lactobacillus gasseri = assay: as above
Lactobacillus paracasei = assay: as above; conditions: Lacticaseibacillus paracasei
Lactobacillus plantarum = assay: as above; conditions: Lactiplantibacillus plantarum
Pediococcus pentosaceus = assay: as above
Enterococcus faecalis = assay: Aerobic agar-dilution AST of facultative anaerobes (MIC, checkerboard FIC)
Enterococcus faecium = assay: Aerobic agar-dilution AST of facultative anaerobes (MIC, checkerboard FIC), also at pH 5, 7, 8; conditions: Enterococcus faecium 51559

Question: What does the source list for `C[C@@H]1O[C@@H]1P(=O)(O)O` [F, fosfomycin sodium]?
Answer: MIC vs clinical breakpoint (susceptibility) (Clostridium septicum; Clostridium septicum 11-3571): +; MIC vs clinical breakpoint (susceptibility) (Clostridium septicum; Clostridium septicum 15-847): +; MIC (Clostridium septicum; strain 11-3571, anaerobic): 16 µg/mL; MIC (Clostridium septicum; strain 15-847, anaerobic): 32 µg/mL; MIC vs clinical breakpoint (susceptibility) ([1]; anaerobic (Table 17)): +; MIC ([1]; Peptostreptococcus anaerobius, anaerobic): 16 µg/mL; MIC (Bacteroides ovatus; Bacteroides ovatus ATCC 8483, anaerobic): >128 µg/mL; MIC vs clinical breakpoint (susceptibility) (Bacteroides ovatus; Bacteroides ovatus ATCC 8483, anaerobic (Table 17)): −; MIC (Bacteroides ovatus; Bacteroides ovatus, ATCC8483): > 128 µg/mL; MIC vs clinical breakpoint (susceptibility) ([2]; Bacteroides thetaiotaomicron VPI5482, anaerobic (Table 17)): −; MIC ([2]; Bacteroides thetaiotaomicron VPI 5842): >128 µg/mL; MIC ([2]; Bacteroides thetaiotaomicron, Bacteroides thetaiotaomicron VPI 5842): 128 µg/mL; MIC ([2]; Bacteroides thetaiotaomicron, strain VPI5482 (Tables 1, 2) / VPI 5842 (other tables)): > 128 µg/mL; MIC (Prevotella intermedia; Prevotella intermedia, Prevotella intermedia 8071621, anaerobic): > 128 µg/mL; MIC (Prevotella intermedia; Prevotella intermedia, strain 807114, anaerobic): > 128 µg/mL; MIC (Prevotella intermedia; Prevotella intermedia, strain 8071621, anaerobic): > 128 µg/mL; MIC (Prevotella intermedia; Prevotella intermedia, strain 8071621, anaerobic, read-out: MIC): 64 µg/mL; MIC (Prevotella intermedia; strain 8071621, anaerobic): 128 µg/mL; MIC [3]: 16 µg/mL; MIC (Staphylococcus aureus; ATCC33591, Staphylococcus aureus ATCC 33591 (Table 15)): 4 µg/mL; MIC (Staphylococcus aureus; Staphylococcus aureus 829025): 8 µg/mL; MIC (Staphylococcus aureus; Staphylococcus aureus 894946): 8 µg/mL; MIC (Staphylococcus aureus; Staphylococcus aureus 920576): 8 µg/mL; MIC (Staphylococcus aureus; Staphylococcus aureus 920962): 8 µg/mL; MIC (Staphylococcus aureus; Staphylococcus aureus 927596): 8 µg/mL; MIC (Staphylococcus aureus; Staphylococcus aureus 952566 (Table 15)): > 16 µg/mL; MIC (Staphylococcus aureus; Staphylococcus aureus 952566 (Tables 14A/14B)): 8 µg/mL; MIC (Staphylococcus aureus; Staphylococcus aureus 953041 (Table 15)): 4 µg/mL; MIC (Staphylococcus aureus; Staphylococcus aureus 956270): 8 µg/mL; MIC (Staphylococcus aureus; Staphylococcus aureus 956362): 8 µg/mL; MIC (Staphylococcus aureus; Staphylococcus aureus 981550 (Table 15)): 16 µg/mL; MIC (Staphylococcus aureus; Staphylococcus aureus 981550 (Tables 14A/14B)): 8 µg/mL; MIC (Staphylococcus aureus; Staphylococcus aureus 994946): 2 µg/mL; MIC (Staphylococcus aureus; Staphylococcus aureus 1022425): 16 µg/mL; MIC (Staphylococcus aureus; Staphylococcus aureus 1045190): 8 µg/mL; MIC (Staphylococcus aureus; strain (MR) 829025, aerobic): 4 µg/mL; MIC (Staphylococcus aureus; strain (MR) 884649, aerobic): 8 µg/mL; MIC (Staphylococcus aureus; strain (MR) 903887, aerobic): 8 µg/mL; MIC (Staphylococcus aureus; strain (MR) 918019, aerobic): 4 µg/mL; MIC (Staphylococcus aureus; strain (MR) 920516, aerobic): 4 µg/mL; MIC (Staphylococcus aureus; strain (MR) 927596, aerobic): 8 µg/mL; MIC (Staphylococcus aureus; strain (MR) 956270, aerobic): 4 µg/mL; MIC (Staphylococcus aureus; strain (MR) 956362, aerobic): 8 µg/mL; MIC (Staphylococcus aureus; strain (MR) 967287, aerobic): 8 µg/mL; MIC (Staphylococcus aureus; strain (MR) 974980, aerobic): 8 µg/mL; MIC (Staphylococcus aureus; strain (MR) 979234, aerobic): 8 µg/mL; MIC (Staphylococcus aureus; strain (MR) 981550, aerobic): 4 µg/mL; MIC (Staphylococcus aureus; strain (MR) 1022425, aerobic): 8 µg/mL; MIC (Staphylococcus aureus; strain (MR) 1045190, aerobic): 4 µg/mL; MIC (Escherichia coli; ATCC25922, Escherichia coli ATCC 25922 (Table 15)): 1 µg/mL; MIC (Escherichia coli; ATCC25922, strain ATCC 25922, aerobic): 2 µg/mL; MIC (Escherichia coli; Escherichia coli 846446): 1 µg/mL; MIC (Escherichia coli; Escherichia coli 854535): 4 µg/mL; MIC (Escherichia coli; Escherichia coli 976657): 16 µg/mL; MIC (Escherichia coli; pH 5, Escherichia coli 857021, pH 5): 2000 µg/mL; MIC (Escherichia coli; pH 7, Escherichia coli 857021, pH 7): 32000 µg/mL; MIC (Escherichia coli; pH 7, Escherichia coli CDC-0089, pH 7): 2000 µg/mL; MIC (Escherichia coli; pH 8, Escherichia coli 25922, pH 8): 8000 µg/mL; MIC (Escherichia coli; pH 8, Escherichia coli 857021, pH 8): 4000 µg/mL; MIC (Escherichia coli; pH 8, Escherichia coli CDC-0089, pH 8): 64000 µg/mL; MIC (Escherichia coli; strain 846446, aerobic): 2 µg/mL; MIC (Escherichia coli; strain 846450, aerobic): 4 µg/mL; MIC (Escherichia coli; strain 854566, aerobic): 16 µg/mL; MIC (Escherichia coli; strain 857021, aerobic): 2 µg/mL; MIC (Escherichia coli; strain 863678, aerobic): 2 µg/mL; MIC (Escherichia coli; strain 863696, aerobic): 8 µg/mL; MIC (Escherichia coli; strain 928017, aerobic): 2 µg/mL; MIC (Escherichia coli; strain 959117, aerobic): 2 µg/mL; MIC (Escherichia coli; strain 961128, aerobic): 2 µg/mL; MIC (Escherichia coli; strain 975811, aerobic): 4 µg/mL; MIC (Escherichia coli; strain 976657, aerobic): 4 µg/mL; MIC (Escherichia coli; strain 977941, aerobic): 4 µg/mL; MIC (Escherichia coli; strain 996332, aerobic): 4 µg/mL; MIC [4]: > 128 µg/mL; MIC (Lactobacillus gasseri): > 128 µg/mL; MIC (Lactobacillus paracasei): > 128 µg/mL; MIC (Lactobacillus plantarum): > 128 µg/mL; MIC (Pediococcus pentosaceus): > 128 µg/mL; MIC (Enterococcus faecalis; Enterococcus faecalis): > 128 µg/mL; MIC (Enterococcus faecalis; Enterococcus faecalis 108, pH 5, read-out: MIC): 8000 µg/mL; MIC (Enterococcus faecalis; Enterococcus faecalis 1086432, pH 7, read-out: MIC): 64000 µg/mL; MIC (Enterococcus faecalis; Enterococcus faecalis, ATCC51559): > 128 µg/mL; MIC (Enterococcus faecium; pH 5): 16000 µg/mL; MIC (Enterococcus faecium; pH 8): 64000 µg/mL
